Consider 29 compounds from patent publication US11691972B2, “Compounds for targeted degradation of BRD9” (C4 Therapeutics, Inc., priority 2020, dated 2023).

The structures appear in SMILES notation. Like-named read-outs stand apart in the source and are kept apart here.

This test deals with T1, BRD9 (Homo sapiens, UniProt Q9H8M2).
T1 sequence (Q9H8M2 1-597): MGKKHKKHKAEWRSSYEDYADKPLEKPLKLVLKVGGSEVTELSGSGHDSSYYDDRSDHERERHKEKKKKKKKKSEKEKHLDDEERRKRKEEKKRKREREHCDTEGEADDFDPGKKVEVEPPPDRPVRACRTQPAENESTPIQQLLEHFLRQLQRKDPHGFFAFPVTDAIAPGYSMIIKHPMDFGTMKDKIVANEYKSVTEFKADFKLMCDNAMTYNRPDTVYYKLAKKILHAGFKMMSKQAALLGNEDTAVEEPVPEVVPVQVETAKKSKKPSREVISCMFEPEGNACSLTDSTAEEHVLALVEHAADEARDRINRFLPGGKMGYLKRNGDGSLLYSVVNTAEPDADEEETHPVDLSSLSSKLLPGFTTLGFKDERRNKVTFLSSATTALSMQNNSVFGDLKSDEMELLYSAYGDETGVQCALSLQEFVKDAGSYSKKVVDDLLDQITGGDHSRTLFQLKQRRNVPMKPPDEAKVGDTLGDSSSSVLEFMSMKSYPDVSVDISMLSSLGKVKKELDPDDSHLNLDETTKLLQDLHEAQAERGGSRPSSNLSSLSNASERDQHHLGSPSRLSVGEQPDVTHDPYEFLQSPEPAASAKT
The test can be described thus: HiBiT BRD9 degradation assay in 293T.166 (BRD9-HiBiT) cells. In kind it is cell-based. Also on record: endogenously expressing BRD9 with HiBiT fusion tag via CRISPR; host or cells: 293T.166 (BRD9-HiBiT), also expressing LgBiT ectopically. The settings on record: 293T.166 cells, 2.0 hours, read-out: HiBiT-Degradation 293T.166 BRD9 2.0 hours (DC50). In short, it runs like this:
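Luminescence from the Nano-Glo HiBiT lytic reagent quantified BRD9 loss after compounds (top 10 μM, half-log, 11 points, duplicates) were incubated 2 h at 37° C. with 10,000 293T.166 BRD9-HiBiT/LgBiT cells per well, with controls lacking compound or lacking reagent.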
(In general: The HiBiT peptide binds its large partner to form an active luciferase.)

Broadly, the DC50 is the concentration at which degradation of the target reaches its halfway point.

In the case of `COc1cc(-c2cn(C)c(=O)c3cnccc23)cc(Cl)c1C=C1CCN(C(=O)CC2CCN(c3ccc(NC4CCC(=O)NC4=O)cc3F)CC2)CC1` (centres unmarked) [Compound 161, 3-[4-[4-[2-[4-[[2-chloro-6-methoxy-4-(2-methyl-1-oxo-2,7-naphthyridin-4-yl)phenyl]methylene]-1-piperidyl]-2-oxo-ethyl]-1-piperidyl]-3-fluoro-anilino]piperidine-2,6-dione], the DC50 (Table 1, class symbols) is below 100 nM.
As to `COc1cc(-c2cn(C)c(=O)c3cnccc23)cc(Cl)c1CN1CCC(C2CCN(c3ccc(NC4CCC(=O)NC4=O)cc3Cl)CC2)C(F)(F)C1` (centres unmarked) [Compound 200], the 50% degradation concentration (DC50) (Table 1, class symbols) is below 100 nM.
Same read-out and setting: as for `COc1cc(-c2cn(C)c(=O)c3cnccc23)cc(Cl)c1CN1CCC(N2CCN(c3ccc(OC4CCC(=O)NC4=O)cc3F)CC2)C(F)(F)C1` (centres unmarked) [Compound 230, 3-[4-[4-[1-[[2-chloro-6-methoxy-4-(2-methyl-1-oxo-2,7-naphthyridin-4-yl)phenyl]methyl]-3,3-difluoro-4-piperidyl]piperazin-1-yl]-3-fluoro-phenoxy]piperidine-2,6-dione], the figure is below 100 nM; as for `COc1cc(-c2cn(C)c(=O)c3[nH]ncc23)cc(Cl)c1CN1CCN(C(=O)CC2CCN(c3ccc(NC4CCC(=O)NC4=O)cc3F)CC2)CC1` (centres unmarked) [Compound 66], below 100 nM; as for `COc1cc(-c2cn(C)c(=O)c3[nH]ncc23)cc(OC)c1CN1CCc2c(CN3CCC(c4ccc(NC5CCC(=O)NC5=O)cc4)C(F)(F)C3)csc2C1` (centres unmarked) [Compound 103], below 100 nM.
Still for that read-out and setting: the figure for `COc1cc(-c2cn(C)c(=O)c3cnccc23)cc(Cl)c1C(=O)N1CCC(N2CCN(c3ccc(NC4CCC(=O)NC4=O)cc3F)CC2)C(F)(F)C1` (centres unmarked) [Compound 224] is below 100 nM; for `COc1cc(-c2cn(C)c(=O)c3[nH]ncc23)cc(OC)c1CN1CCN(C(=O)CN2CCC(c3ccc(NC4CCC(=O)NC4=O)cc3F)CC2)CC1` (centres unmarked) [Compound 7] it is below 100 nM.
For the compound `COc1cc(-c2cn(C)c(=O)c3ccccc23)cnc1CN1CCC(N2CCN(c3ccc(NC4CCC(=O)NC4=O)cc3F)CC2)C(F)(F)C1` (centres unmarked) [Compound 261, 3-[4-[4-[3,3-difluoro-1-[[3-methoxy-5-(2-methyl-1-oxo-4-isoquinolyl)-2-pyridyl]methyl]-4-piperidyl]piperazin-1-yl]-3-fluoro-anilino]piperidine-2,6-dione], the DC50 (Table 2, class symbols) was below 100 nM.
As to `COc1cc(-c2cn(C)c(=O)c(C)c2C)cc(OC)c1CN1CCC(N2CCN(c3ccc(NC4CCC(=O)NC4=O)cc3F)CC2)C(F)(F)C1` (single isomer, unassigned) [Compound 175, 3-[4-[4-[1-[[2,6-dimethoxy-4-(1,4,5-trimethyl-6-oxo-3-pyridyl)phenyl]methyl]-3,3-difluoro-4-piperidyl]piperazin-1-yl]-3-fluoro-anilino]piperidine-2,6-dione], the DC50 (Table 1, class symbols) is below 100 nM.
The same measure, in the same setting: as for `COc1cc(-c2cn(C)c(=O)c3[nH]ncc23)cc(F)c1C(=O)N1CCN(C(=O)CN2CCC(c3ccc(NC4CCC(=O)NC4=O)cc3)CC2)CC1` (centres unmarked) [Compound 47], the figure is below 100 nM; as for `COc1cc(-c2cn(C)c(=O)c3cnccc23)cc(Cl)c1C(=O)N1CCC(CC(=O)N2CCC(c3ccc(NC4CCC(=O)NC4=O)cc3)CC2)CC1` (centres unmarked) [Compound 232, 3-[4-[1-[2-[1-[2-chloro-6-methoxy-4-(2-methyl-1-oxo-2,7-naphthyridin-4-yl)benzoyl]-4-piperidyl]acetyl]-4-piperidyl]anilino]piperidine-2,6-dione], below 100 nM.
On the same count and under the same terms, the figure for `COc1cc(-c2cn(C)c(=O)c3[nH]ncc23)cc(OC)c1CNc1ccc2c(c1)CCN(C(=O)C1CCN(c3ccc(NC4CCC(=O)NC4=O)cc3)CC1)C2` (centres unmarked) [Compound 170] is below 100 nM.
The same measure, in the same setting: the figure for `COc1cc(-c2cn(C)c(=O)c3cnccc23)cc(Cl)c1CN1CCC(N2CCN(c3ccc(NC4CCC(=O)NC4=O)cc3Cl)CC2)C(F)(F)C1` (centres unmarked) [Compound 186] is below 100 nM; for `COc1cc(-c2cn(C)c(=O)c3[nH]ncc23)cc(F)c1CN1CCC(CCC2CCN(c3ccc(NC4CCC(=O)NC4=O)cc3)CC2)CC1` (centres unmarked) [Compound 147, 3-[4-[4-[2-[1-[[2-fluoro-6-methoxy-4-(6-methyl-7-oxo-1H-pyrazolo[3,4-c]pyridin-4-yl)phenyl]methyl]-4-piperidyl]ethyl]-1-piperidyl]anilino]piperidine-2,6-dione] it is below 100 nM.
In the case of `CN(C(=O)N1CCC(c2ccc(NC3CCC(=O)NC3=O)cc2)CC1)C1CCN(C(=O)c2ccc(-c3cn(C)c(=O)c4ccccc34)cc2OC(F)(F)F)CC1` (centres unmarked) [Compound 127], the DC50 (Table 1, class symbols) was below 100 nM.
As for `COc1cc(-c2cn(C)c(=O)c(C)c2C)cc(Cl)c1CN1CCC(N2CCN(c3ccc(N(C)C4CCC(=O)NC4=O)cc3F)CC2)C(F)(F)C1` (centres unmarked) [Compound 248], the half-maximal degradation concentration (DC50) (Table 2, class symbols) was below 100 nM.
For `COc1cc(-c2cn(C)c(=O)c3[nH]ncc23)cc(OC)c1CN1CCN(C(=O)CC2(O)CCN(c3ccc(NC4CCC(=O)NC4=O)cc3C(F)(F)F)CC2)CC1` (centres unmarked) [Compound 68, 3-[4-[4-[2-[4-[[2,6-dimethoxy-4-(6-methyl-7-oxo-1H-pyrazolo[3,4-c]pyridin-4-yl)phenyl]methyl]piperazin-1-yl]-2-oxo-ethyl]-4-hydroxy-1-piperidyl]-3-(trifluoromethyl)anilino]piperidine-2,6-dione], the DC50 (Table 1, class symbols) was below 100 nM.
Take `COc1cc(-c2cn(C)c(=O)c3cnccc23)cc(OC)c1CN1CCc2cc(C3CCN(c4ccc(NC5CCC(=O)NC5=O)cc4C(F)(F)F)CC3)ccc2C1` (centres unmarked) [Compound 231, 3-[4-[4-[2-[[2,6-dimethoxy-4-(2-methyl-1-oxo-2,7-naphthyridin-4-yl)phenyl]methyl]-3,4-dihydro-1H-isoquinolin-6-yl]-1-piperidyl]-3-(trifluoromethyl)anilino]piperidine-2,6-dione]: the DC50 (Table 1, class symbols) is below 100 nM.
With `COc1cc(-c2cn(C)c(=O)c3[nH]ncc23)cc(Cl)c1CN1CCC(F)(CCC2CCN(c3ccc(NC4CCC(=O)NC4=O)cc3F)CC2)CC1` (centres unmarked) [Compound 151, 3-[4-[4-[2-[1-[[2-chloro-6-methoxy-4-(6-methyl-7-oxo-1H-pyrazolo[3,4-c]pyridin-4-yl)phenyl]methyl]-4-fluoro-4-piperidyl]ethyl]-1-piperidyl]-3-fluoro-anilino]piperidine-2,6-dione], for the setting “Table 1, class symbols”, the DC50 was below 100 nM.
Still for that read-out and setting: as for `COc1cc(-c2cn(C)c(=O)c3cnccc23)cc(Cl)c1C(=O)N1CCC(CCC2CCN(c3ccc(NC4CCC(=O)NC4=O)cc3F)CC2)CC1` (centres unmarked) [Compound 241, 3-[4-[4-[2-[1-[2-chloro-6-methoxy-4-(2-methyl-1-oxo-2,7-naphthyridin-4-yl)benzoyl]-4-piperidyl]ethyl]-1-piperidyl]-3-fluoro-anilino]piperidine-2,6-dione], the figure is below 100 nM.
For `Cc1c(-c2ccc(C(=O)N3CCC(C4CCN(c5ccc(NC6CCC(=O)NC6=O)cc5F)CC4)CC3)c(OC(F)(F)F)c2)cn(C)c(=O)c1C` (single isomer, unassigned) [Compound 213, 3-[3-fluoro-4-[4-[1-[2-(trifluoromethoxy)-4-(1,4,5-trimethyl-6-oxo-3-pyridyl)benzoyl]-4-piperidyl]-1-piperidyl]anilino]piperidine-2,6-dione], the DC50 (Table 1, numeric bound) was above 800 nM.
As for `COc1cc(-c2cn(C)c(=O)c3[nH]ncc23)cc(Cl)c1CN1CCC(CC(=O)N2CCC(c3ccc(NC4CCC(=O)NC4=O)cc3)C(F)(F)C2)CC1` (centres unmarked) [Compound 45], where the note is “Table 1, class symbols”, the DC50 was below 100 nM.
In the case of `COc1cc(-c2cn(C)c(=O)c3cnccc23)cc(Cl)c1CN1CCC(C2CCN(c3ccc(NC4CCC(=O)NC4=O)cc3F)CC2)CC1` (centres unmarked) [Compound 78], the DC50 (Table 1, class symbols) is below 100 nM.
In the case of `COc1cc(-c2cn(C)c(=O)c(C)c2C)cc(Cl)c1CN1CCC(F)(CCC2CCN(c3ccc(NC4CCC(=O)NC4=O)cc3Cl)CC2)CC1` (centres unmarked) [Compound 263], for the setting “Table 2, class symbols”, the half-maximal degradation concentration (DC50) is below 100 nM.
For the compound `COc1cc(-c2cn(C)c(=O)c3[nH]ncc23)cc(OC)c1CN1CCN(CCCC(=O)N2CCC(c3ccc(NC4CCC(=O)NC4=O)cc3)CC2)CC1` (centres unmarked) [Compound 40], the 50% degradation concentration (DC50) (Table 1, class symbols) is below 100 nM.
On the same count and under the same terms, the figure for `COc1cc(-c2cn(C)c(=O)c(C)c2C)cc(Cl)c1CN1CCC(C2CCN(c3ccc(NC4CCC(=O)NC4=O)cc3C(F)(F)F)CC2)CC1` (centres unmarked) [Compound 85] is below 100 nM; for `COc1cc(-c2cn(C)c(=O)c3[nH]ncc23)cc(OC)c1CN1CCN(C(=O)CN2CCC(c3ccc(C4CCC(=O)NC4=O)cc3)CC2)CC1` (centres unmarked) [Compound 16] it is below 100 nM; for `CN(C(=O)N1CCC(c2ccc(NC3CCC(=O)NC3=O)cc2)CC1)C1CCN(Cc2ccc(-c3cn(C)c(=O)c4ccccc34)cc2OC(F)(F)F)CC1` (centres unmarked) [Compound 113] it is below 100 nM.
On the same count and under the same terms, the figure for `COc1cc(-c2cn(C)c(=O)c3[nH]ncc23)cc(OC)c1CNC1CCN(CC(=O)N2CCC(c3ccc(NC4CCC(=O)NC4=O)cc3)CC2)CC1` (centres unmarked) [Compound 39] is below 100 nM.
